Molecular target: T1, TFAM (mitochondrial transcription factor A) (Homo sapiens, UniProt Q00059)
T1 construct: endogenous protein in intact human HepG2 cells
T1 sequence (Q00059 43-246): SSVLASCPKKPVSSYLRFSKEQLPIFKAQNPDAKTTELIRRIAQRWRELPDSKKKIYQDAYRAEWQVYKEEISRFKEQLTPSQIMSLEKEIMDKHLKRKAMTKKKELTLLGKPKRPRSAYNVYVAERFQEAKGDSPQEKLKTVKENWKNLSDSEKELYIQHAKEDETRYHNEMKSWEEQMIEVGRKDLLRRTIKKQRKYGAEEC
Experiment: cellular thermal shift assay (CETSA), Western blot
Assay type: cell-based
Details: intact cells incubated 2 h with or without OA, heated 3 min at 43 to 70 °C; rightward shift of melting curve

COc1c(O)cc2oc(-c3ccccc3)cc(=O)c2c1O [Oroxylin A]
thermal shift: thermal shift assays showed a significant rightward shift in the thermal melting curve upon OA administration

— publication PMC11676196, “Inhibition of TFAM-Mediated Mitophagy by Oroxylin A Restored Sorafenib Sensitivity Under Hypoxia Conditions in HepG2 Cells” (Pharmaceuticals, 2024)
